Consider 15 compounds from patent publication US20230056135A1, “MONOMER AND MULTIMERIC ANTI-HBV AGENTS” (priority 2018, published 2023).

Common to all, as to format: cell-based
One data set concerns wild type HBV. Briefly: Anti-HBV assay in AD-38 cell line (HBV in culture supernatant). Conditions: for EC50: read-out: Anti-HBV activity EC50; for EC90: read-out: Anti-HBV activity EC90. On the procedure: The anti-HBV activity of the compounds was determined by treating the AD-38 cell line carrying wild type HBV under the control of tetracycline (see Ladner S. K., Otto M. J., Barker C. S., Zaifert K., Wang G. H., Guo J. T., Seeger C. & King R. W. Antimicrob. Agents Chemother. 1997, 41, 1715-20). Removal of tetracycline from the medium [Tet (−)] results in the production of HBV. The levels of HBV in the culture supernatant fluids from cells treated with the compounds were compared with that of the untreated controls. Control cultures with tetracycline [Tet (+)] were also maintained to determine the basal levels of HBV expression. 3TC was included as positive control.
The median effective concentrations (EC50) ranges of several of the compounds described herein against HBV are shown in Table 3: […]

Data set [1] in a line: Cellular toxicity assay in human PBM cells. The conditions noted are these: human PBM cells, read-out: Cytotoxicity, CC50 (μM) PBM. On the procedure: (§1) The toxicity of the compounds was assessed in Vero, human PBM, CEM (human lymphoblastoid), MT-2, and HepG2 cells, as described previously (see Schinazi R. F., Sommadossi J.-P., Saalmann V., Cannon D. L., Xie M.-Y., Hart G. C., Smith G. A. & Hahn E. F. Antimicrob. Agents Chemother. 1990, 34, 1061-67). Cycloheximide was included as positive cytotoxic control, and untreated cells exposed to solvent were included as negative controls. The cytotoxicity IC50 was obtained from the concentration-response curve using the median effective method described previously (see Chou T.-C. & Talalay P. Adv. Enzyme Regul. 1984, 22, 27-55; Belen'kii M. S. & Schinazi R. F. Antiviral Res. 1994, 25, 1-11).

Data set [2] can be described thus: Cellular toxicity assay in HepG2 cells. The conditions noted are these: human, HepG2 cells; read-out: Cytotoxicity; CC50 (μM) HepG2. On the procedure:
as §1

The mark [3] stands for this setting: Hepatitis B virus, AD-38 cell line, Tet (-).

Like-named read-outs stand apart in the source and are kept apart here. A value given as a limit tells only on which side of the number the result lay.

Usually EC50 stands for the concentration at which the effect is half-maximal. For the compound `Cc1c(C(=O)C(=O)NCc2cn(CCOCCOCC(COCCOCCn3cc(CNC(=O)C(=O)c4c(C)c(C(=O)Nc5ccc(F)c(F)c5)n(C)c4C)nn3)COCCOCCn3cc(CNC(=O)C(=O)c4c(C)c(C(=O)Nc5ccc(F)c(F)c5)n(C)c4C)nn3)nn2)c(C)n(C)c1C(=O)Nc1ccc(F)c(F)c1` [Compound 122], the EC50 in the data set with wild type HBV (setting [3]) fell in the range of 100 to 1000 nM.

For orientation: EC90 means the concentration needed for an effect of 90%. For the compound `Cc1c(C(=O)C(=O)NCc2cn(CCCCCCCCCCn3cc(CNC(=O)C(=O)c4c(C)c(C(=O)Nc5ccc(F)c(F)c5)n(C)c4C)nn3)nn2)c(C)n(C)c1C(=O)Nc1ccc(F)c(F)c1` [Compound 77, 4,4′-(2,2′-(((decane-1,10-diylbis(1H-1,2,3-triazole-1,4-diyl))bis(methylene))bis(azanediyl))bis (2-oxoacetyl))bis(N-(3,4-difluorophenyl)-1,3,5-trimethyl-1H-pyrrole-2-carboxamide)], the CC50 in data set [1] (human) and in data set [2] was greater than 100 µM throughout. Also, the EC50 in the data set with wild type HBV (setting [3]) was 1 to 10 nM. Further, the EC90 in the data set with wild type HBV (setting [3]) lay within 100 to 1000 nM.

Regarding `Cc1c(C(=O)C(=O)NCc2cn(CCOCCOCC(COCCOCCN=[N+]=[N-])(COCCOCCN=[N+]=[N-])COCCOCCn3cc(CNC(=O)C(=O)c4c(C)c(C(=O)Nc5ccc(F)c(F)c5)n(C)c4C)nn3)nn2)c(C)n(C)c1C(=O)Nc1ccc(F)c(F)c1` [Compound 108, 4,4′-(2,2′-((((8,8-bis((2-(2-azidoethoxy)ethoxy)methyl)-3,6,10,13-tetraoxapentadecane-1,15-diyl)bis(1H-1,2,3-triazole-1,4-diyl))bis(methylene))bis(azanediyl))bis(2-oxoacetyl))bis(N-(3,4-difluorophenyl)-1,3,5-trimethyl-1H-pyrrole-2-carboxamide)], the CC50 in data set [1] (human) is greater than 100 µM. Further, in data set [2], the CC50 is greater than 100 µM. Also, in the data set with wild type HBV (setting [3]), the EC50 was 10 to 100 nM and the EC90 was 100 to 1000 nM.

For `CCOP(=O)(Cn1cc(CNC(=O)C(=O)c2c(C)c(C(=O)Nc3ccc(F)c(F)c3)n(C)c2C)nn1)OCC` [Compound 68, Diethyl((4-((2-(5-((3,4-difluorophenyl)carbamoyl)-1,2,4-trimethyl-1H-pyrrol-3-yl)-2-oxoacetamido)methyl)-1H-1,2,3-triazol-1-yl)methyl) phosphonate], the values for the CC50 in data set [1] and in data set [2] were 70 µM and greater than 100 µM, respectively. Also, the EC50 with wild type HBV (Hepatitis B virus) lay in the range of 100 to 1000 nM.

For `C#CCn1c(C)c(C(=O)C(=O)NC(C)(C)C#C)c(C)c1C(=O)Nc1ccc(F)c(F)c1` [Compound 120, N-(3,4-Difluorophenyl)-3,5-dimethyl-4-(2-((2-methylbut-3-yn-2-yl)amino)-2-oxoacetyl)-1-(prop-2-yn-1-yl)-1H-pyrrole-2-carboxamide], the CC50 in data set [1] (human) and in data set [2] was greater than 100 µM in each case. In addition, the EC50 in the data set on wild type HBV (setting [3]) lay within 0.01 to 0.1 nM. Moreover, the EC90 in the data set on wild type HBV (setting [3]) fell in the range of 1 to 10 nM.

For the compound `Cc1c(C(=O)C(=O)NCc2cn(CCOCCn3cc(CNC(=O)C(=O)c4c(C)c(C(=O)Nc5ccc(F)c(F)c5)n(C)c4C)nn3)nn2)c(C)n(C)c1C(=O)Nc1ccc(F)c(F)c1` [Compound 85, 4,4′-(2,2′-((((oxybis(ethane-2,1-diyl))bis(1H-1,2,3-triazole-1,4-diyl))bis(methylene))bis(azanediyl))bis(2-oxoacetyl))bis(N-(3,4-difluorophenyl)-1,3,5-trimethyl-1H-pyrrole-2-carboxamide)], the EC50 with wild type HBV (setting [3]) lay in the range of 1000 to 10000 nM.

Turning to `Cc1c(C(=O)C(=O)NCc2cn(CCOCCOCC(COCCOCCN=[N+]=[N-])(COCCOCCn3cc(CNC(=O)C(=O)c4c(C)c(C(=O)Nc5ccc(F)c(F)c5)n(C)c4C)nn3)COCCOCCn3cc(CNC(=O)C(=O)c4c(C)c(C(=O)Nc5ccc(F)c(F)c5)n(C)c4C)nn3)nn2)c(C)n(C)c1C(=O)Nc1ccc(F)c(F)c1` [Compound 109], in data set [1] (human), the CC50 is greater than 100 µM. The CC50 in data set [2] was greater than 100 µM. Moreover, in the data set with wild type HBV (setting [3]), the EC50 lay in the range of 100 to 1000 nM and the EC90 is 1000 to 10000 nM.

For the compound `Cc1c(C(=O)C(=O)NCc2cn(CCCCCCn3cc(CNC(=O)C(=O)c4c(C)c(C(=O)Nc5ccc(F)c(F)c5)n(C)c4C)nn3)nn2)c(C)n(C)c1C(=O)Nc1ccc(F)c(F)c1` [Compound 71, 4,4′-(2,2′-(((Hexane-1,6-diylbis(1H-1,2,3-triazole-1,4-diyl))bis(methylene))bis(azanediyl))bis(2-oxoacetyl))bis(N-(3,4-difluorophenyl)-1,3,5-trimethyl-1H-pyrrole-2-carboxamide)], the CC50 in data set [1] (human) was greater than 100 µM. Further, the CC50 in data set [2] was greater than 100 µM. Moreover, in the data set on wild type HBV (setting [3]), the EC50 lay in the range of 100 to 1000 nM and the EC90 fell in the range of 1000 to 10000 nM.

Regarding `Cc1c(C(=O)C(=O)NCc2cn(CCOCCOCCOCCn3cc(CNC(=O)C(=O)c4c(C)c(C(=O)Nc5ccc(F)c(F)c5)n(C)c4C)nn3)nn2)c(C)n(C)c1C(=O)Nc1ccc(F)c(F)c1` [Compound 94, 4,4′-(2,2′-((((((oxybis(ethane-2,1-diyl))bis(oxy))bis(ethane-2,1-diyl))bis(1H-1,2,3-triazole-1,4-diyl))bis(methylene))bis(azanediyl))bis(2-oxoacetyl))bis(N-(3,4-difluorophenyl)-1,3,5-trimethyl-1H-pyrrole-2-carboxamide)], the CC50 in data set [1] (human) and in data set [2] was greater than 100 µM throughout. In the data set on wild type HBV (setting [3]), the EC50 fell in the range of 1 to 10 nM.

Take `Cc1c(C(=O)C(=O)NCc2cn(CCOCCOCCOCCOCCOCCn3cc(CNC(=O)C(=O)c4c(C)c(C(=O)Nc5ccc(F)c(F)c5)n(C)c4C)nn3)nn2)c(C)n(C)c1C(=O)Nc1ccc(F)c(F)c1` [Compound 95, 4,4′-(2,2′-((((3,6,9,12,15-Pentaoxaheptadecane-1,17-diyl)bis(1H-1,2,3-triazole-1,4-diyl))bis (methylene))bis(azanediyl))bis(2-oxoacetyl))bis(N-(3,4-difluorophenyl)-1,3,5-trimethyl-1H-pyrrole-2-carboxamide)]: the EC50 in the data set on wild type HBV (AD-38 cell line, Tet (-)) was in the range of 10 to 100 nM.

Regarding `Cc1c(C(=O)C(=O)NCc2cn(CCOCCOCCn3cc(CNC(=O)C(=O)c4c(C)c(C(=O)Nc5ccc(F)c(F)c5)n(C)c4C)nn3)nn2)c(C)n(C)c1C(=O)Nc1ccc(F)c(F)c1` [Compound 89, 4,4′-(2,2′-(((((Ethane-1,2-diylbis(oxy))bis(ethane-2,1-diyl))bis(1H-1,2,3-triazole-1,4-diyl))bis (methylene))bis(azanediyl))bis(2-oxoacetyl))bis(N-(3,4-difluorophenyl)-1,3,5-trimethyl-1H-pyrrole-2-carboxamide)], the CC50 in data set [1] (human) was 68 µM; in data set [2], greater than 100 µM. Besides, in the data set with wild type HBV (setting [3]), the EC50 was 1000 to 10000 nM.

Regarding `C#CCNC(=O)C(=O)c1c(C)c(C(=O)Nc2ccc(F)c(F)c2)n(CC#CC)c1C` [Compound 119, 1-(But-2-yn-1-yl)-N-(3,4-difluorophenyl)-3,5-dimethyl-4-(2-oxo-2-(prop-2-yn-1-ylamino)acetyl)-1H-pyrrole-2-carboxamide], the CC50 in data set [1] (human) and in data set [2] was greater than 100 µM in each case. The EC50 in the data set on wild type HBV (Hepatitis B virus) was in the range of 10 to 100 nM.

Regarding `Cc1c(C(=O)C(=O)NCc2cn(CCCCCCCCn3cc(CNC(=O)C(=O)c4c(C)c(C(=O)Nc5ccc(F)c(F)c5)n(C)c4C)nn3)nn2)c(C)n(C)c1C(=O)Nc1ccc(F)c(F)c1` [Compound 74, 4,4′-(2,2′-(((Octane-1,8-diylbis(1H-1,2,3-triazole-1,4-diyl))bis(methylene))bis(azanediyl))bis(2-oxoacetyl))bis(N-(3,4-difluorophenyl)-1,3,5-trimethyl-1H-pyrrole-2-carboxamide)], in data set [1] (human), the CC50 is greater than 100 µM. In data set [2], the CC50 was greater than 100 µM. Also, in the data set with wild type HBV (setting [3]), the EC50 lay within 0.1 to 1 nM and the EC90 was 1 to 10 nM.

Consider `Cc1c(C(=O)C(=O)NCc2cn(CCOCCOCC(COCCOCCn3cc(CNC(=O)C(=O)c4c(C)c(C(=O)Nc5ccc(F)c(F)c5)n(C)c4C)nn3)(COCCOCCn3cc(CNC(=O)C(=O)c4c(C)c(C(=O)Nc5ccc(F)c(F)c5)n(C)c4C)nn3)COCCOCCn3cc(CNC(=O)C(=O)c4c(C)c(C(=O)Nc5ccc(F)c(F)c5)n(C)c4C)nn3)nn2)c(C)n(C)c1C(=O)Nc1ccc(F)c(F)c1` [Compound 110], for which the CC50 in data set [1] (human) and in data set [2] was greater than 100 µM in each case. Moreover, the EC50 with wild type HBV (setting [3]) fell in the range of 100 to 1000 nM. In addition, the EC90 with wild type HBV (setting [3]) is 1000 to 10000 nM.

Turning to `Nc1ccn([C@@H]2CS[C@H](CO)O2)c(=O)n1` [Compound 3TC, lamivudine, reference compound], in the data set with wild type HBV (setting [3]), the EC50 fell in the range of 100 to 1000 nM and the EC90 was in the range of 1000 to 10000 nM.
